The record followed here is patent US20250154112A1, “A PREPARATION OF QUINAZOLINEDIONES AND USE THEREOF” (COUNCIL OF SCIENTIFIC AND INDUSTRIAL RESEARCH AN INDIAN …, priority 2021, published 2025).

In one assay the test system is HepG2 cells. The assay is described as follows: Confocal microscopy of lipid droplets in oleate induced HepG2 cells. To be noted: 250 μM oleate induction, 100 nM and 500 nM, 24 hours. Format: cell-based. The protocol: To select the compounds capable of inhibiting the ubiquitination of ATGL by COP1 by targeting the VP motif, confocal microscopy was performed with the provided molecules. If the compound was effective in inhibiting the interaction, there would have been a reduction in the number of fat droplets in the cells after treatment. […] With this rationale in mind, HepG2 cells were induced to accumulate lipid droplets after treatment with 250 μM of oleate and 10 μM of the specific compounds were added. The potential of the compounds to bring about a reduction in the number of fat droplets was then checked by comparison with oleate induced cells by counting number of droplets of approximately 20 cells from each treatment and calculating the average number of lipid droplets of each cell. The selected compounds were then subjected to dose dependent treatments and the ones which could maintain its potency to reduce fat droplets at lower doses were then selected for western blot analysis. The compound which could reduce the number of fat droplets in the cells were expected to raise the levels of ATGL since they were likely to deter COP1 from ubiquitinating ATGL. This increase was visible only in the protein level and gene expression was likely to remain unchanged since ubiquitination is a […] modification. […]

The test system of assay [1] is C57BL/6 mice fed with high fat diet (HFD). Kind of assay: HFD induced fatty liver disease model. The class given is in vivo. To be noted: HFD 12 weeks, 80 mg/kg orally for the last 4 weeks. The protocol: A preclinical therapeutic model was developed where C57BL/6 mice were fed with 60% kcal high fat diet (HFD) for 12 weeks, and for the last 4 weeks the mice were orally fed with the compound 62 at 80 mg/kg body weight dose.

For `COCCn1c(=O)c2cc(NC(=O)Nc3cccc(C(C)=O)c3)ccc2n(CCN2CCCCC2)c1=O` [Compound 62, 1-(3-acetylphenyl)-3-(3-(2-methoxyethyl)-2,4-dioxo-1-(2-(piperidin-1-yl)ethyl)-1,2,3,4-tetrahydroquinazolin-6-yl)urea], the “number of lipid droplets” value in the assay on HepG2 cells is recorded as “decrease in the number of lipid droplets”. Further, in assay [1], the body weight entry is reported as “Reductions”, the hepatic fibrogenesis result was “improvement in hepatic fibrogenesis”, the “hepatic lipid droplets (FIG. 7A)” value is reported as “considerable depletion of hepatic lipid droplets” and the liver triglyceride content result is recorded as “Reductions”. Further, in assay [1], the serum cholesterol level result was “Reductions” and the total liver weight entry is “Reductions”.
